Data on three molecules can be found in patent US7029857B1, “Processes for obtaining compounds employing SNORF72 receptors” (H. Lundbeck A/S, priority 1999, dated 2006).

Several values for one entry are separate records, joined by “and”; a condition that tells them apart may be missing. Identical values can stand only once. No end group written: not given here.

The term IC50 denotes the concentration that gives 50% inhibition. As usually defined, the Kd is a measure of binding affinity in units of concentration. For orientation: Ki means a measure of affinity in units of concentration, obtained from inhibition or displacement. Read a low Ki as a stronger hold on the target. Usually pKi stands for −log10 of the Ki, conventionally taken in molar units. Lower therefore signals a large Ki.

One assay deals with rat uterus membranes. The conditions noted are these: binding site in rat uterus; cited from earlier work.
The conditions of assay [1]: cited from earlier work.
The target of assay [2] is T1, SNORF62 (Homo sapiens, UniProt Q9HB89).
T1 sequence (Q9HB89 1-426): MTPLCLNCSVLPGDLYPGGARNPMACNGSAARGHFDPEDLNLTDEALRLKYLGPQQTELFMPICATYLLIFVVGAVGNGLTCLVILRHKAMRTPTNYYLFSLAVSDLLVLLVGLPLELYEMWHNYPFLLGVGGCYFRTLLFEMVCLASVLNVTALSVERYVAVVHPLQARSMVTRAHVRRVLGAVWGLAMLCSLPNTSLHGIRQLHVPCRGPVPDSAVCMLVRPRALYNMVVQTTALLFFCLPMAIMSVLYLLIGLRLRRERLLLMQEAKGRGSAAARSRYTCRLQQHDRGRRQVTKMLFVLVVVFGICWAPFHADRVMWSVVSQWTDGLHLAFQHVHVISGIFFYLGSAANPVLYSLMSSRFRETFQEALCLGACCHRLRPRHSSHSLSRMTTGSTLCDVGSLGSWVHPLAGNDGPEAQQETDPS
The experiment in a line: Inositol phosphate (IP) release in SNORF62-transfected COS-7 cells. The class given is cell-based. Also on record: The SNORF62 cDNA codes for a protein of 426 amino acids; expressed in transfected cells; host or cells: COS-7 (transient, DEAE-dextran).
Procedure: Human SNORF62 receptor-mediated activation and human SNORF72 receptor-mediated activation of the inositol phosphate (IP) second messenger pathways were assessed by radiometric measurement of IP products.
For example, in a 96 well microplate format assay, COS-7 cells expressing the receptor of interest were plated at a density of 70,000 cells per well and allowed to incubate for 24 hours. The cells were then labeled with 0.5 μCi [^3H]myo-inositol overnight at 37° C., 5% CO2. Immediately before the assay, the medium was removed and replaced with 180 μL of Phosphate-Buffered Saline (PBS) containing 10 mM LiCl. The plates were then incubated for 20 min at 37° C., 5% CO2. Following the incubation, the cells were challenged with agonist (20 μl/well; 10× concentration) for 30 min at 37° C. The challenge was terminated by the addition of 100 μL of 5% v/v trichloroacetic acid, followed by incubation at 4° C. for greater than 30 minutes. Total IPs were isolated from the lysate by ion exchange chromatography. Briefly, the lysed contents of the wells were transferred to a Multiscreen HV filter plate (Millipore) containing Dowex AG1-X8 (200–400 mesh, formate form). The filter plates were prepared adding 100 μL of Dowex AG1-X8 suspension (50% v/v, water: resin) to each well. The filter plates were placed on a vacuum manifold to wash or elute the resin bed. Each well was first washed 2 times with 200 μl of 5 mM myo-inositol. Total [^3H]inositol phosphates were eluted with 75 μl of 1.2M ammonium formate/0.1M formic acid solution into 96-well plates. 200 μL of scintillation cocktail was added to each well, and the radioactivity was determined by liquid scintillation counting.

The test system of assay [3] is isolated rat inner adrenocortical cells. As to conditions: absence of medullary cells; cited from earlier work.
A further assay concerns rat adrenal gland slices. The conditions noted are these: cited from earlier work.
For assay [4], the target named is T1, SNORF62. Kind of assay: Intracellular Ca2+ release (FLIPR) in SNORF62-transfected COS-7 cells. It is filed as cell-based. Also on record: The SNORF62 cDNA codes for a protein of 426 amino acids; expressed in transfected cells; host or cells: COS-7 (transient, DEAE-dextran). The conditions noted are these: functional assay, data not shown. The method, then: (§1) A typical protocol for the DEAE-dextran method as applied to COS-7 and HEK293 cells is described as follows. Cells to be used for transfection are split 24 hours prior to the transfection to provide flasks which are 70–80% confluent at the time of transfection. Briefly, 8 μg of receptor DNA plus 8 μg of any additional DNA needed (e.g. Gα protein expression vector, reporter construct, antibiotic resistance marker, mock vector, etc.) are added to 9 ml of complete DMEM plus DEAE-dextran mixture (10 mg/ml in PBS). Cells plated into a T225 flask (sub-confluent) are washed once with PBS and the DNA mixture is added to each flask. The cells are allowed to incubate for 30 minutes at 37° C., 5% CO2. Following the incubation, 36 ml of complete DMEM with 80 μM chloroquine is added to each flask and allowed to incubate an additional 3 hours. The medium is then aspirated and 24 ml of complete medium containing 10% DMSO for exactly 2 minutes and then aspirated. The cells are then washed 2 times with PBS and 30 ml of complete DMEM added to each flask. The cells are then allowed to incubate over night. The next day the cells are harvested by trypsinization and reseeded into 96 well plates.
(§2) Cells expressing the receptor of interest are plated into clear, flat-bottom, black-walled 96-well plates (Costar) at a density of 80,000–150,000 cells per well and allowed to incubate for 48 hr at 5% CO2, 37° C. The growth medium is aspirated and 100 μL of loading medium containing Fluo-3 dye is added to each well. The loading medium contains: 20 mM HEPES (Sigma), 0.1% BSA (Sigma), dye/pluronic acid mixture (e.g. 1 mM Fluo-3/AM (Molecular Probes) and 10% pluronic acid (Molecular Probes) mixed immediately before use), and 2.5 mM probenecid (Sigma)(prepared fresh). The cells are allowed to incubate for about 1 hour at 5% CO2, 37° C.
(§3) The compounds of interest are diluted in wash buffer (Hank's BSS (without phenol red), 20 mM HEPES, 2.5 mM probenecid) to a 4× final concentration and aliquoted into a clear v-bottom plate (Nunc). Following the dye incubation, the cells are washed 4 times to remove excess dye using a Denley plate washer. 100 μL final volume of wash buffer is then added to each cell well. Compounds are added to the cell plates and responses are measured using the FLIPR™ instrument. The data are then collected and analyzed using the FLIPR™ software and Graphpad Prism.
(§4) COS-7 cells were transiently transfected with SNORF62, SNORF72 or vector DNA (mock) as described in Materials and Methods.

Another assay deals with T2, rat SNORF72 (Rattus norvegicus, UniProt Q9ESQ4).
T2 construct: corresponding to a predicted protein of 395 amino acids; expressed in transfected cells; host or cells: COS-7 (transient)
Kind of assay: Intracellular Ca2+ release (FLIPR) in rat SNORF72-transfected COS-7 cells. It is filed as cell-based. The conditions noted are these: FIG. 22 at 100 nM. The protocol:
as §1, with “The medium is then aspirated and 24 ml of complete medium containing 10% DMSO for exactly 2 minutes and then aspirated. The cells are then washed 2 times with PBS and 30 ml of complete DMEM added to each flask. The cells are then allowed to incubate over night. The next day the cells are harvested by trypsinization and reseeded into 96 well plates.” left out
In another method, the measurement of intracellular Ca^2+ can also be performed on a 96-well (or higher) format and with alternative Ca^2+-sensitive indicators, preferred examples of these are: aequorin, Fluo-3, Fluo-4, Fluo-5, Calcium Green-1, Oregon Green, and 488 BAPTA. After activation of the receptors with agonist ligands the emission elicited by the change of intracellular Ca^2+ concentration can be measured by a luminometer, or a fluorescence imager; a preferred example of this is the fluorescence imager plate reader (FLIPR™, Molecular Devices). […]

Another assay deals with T3, SNORF72 (Homo sapiens, UniProt Q9GZQ4, A395T).
T3 construct: expressed in transfected cells; host or cells: COS-7 (transient, DEAE-dextran)
The experiment in a line: Intracellular Ca2+ release (FLIPR) in SNORF72-transfected COS-7 cells. The conditions noted are these: SNORF72-transfected COS-7 cells, peptides at 300 nM (FIG. 8). The class given is cell-based. The method, then: as §1, §2, §3, §4

Assay [5] concerns the target T4, human SNORF72 receptor (human, UniProt Q9GZQ4 1-415).
T4 construct: Full-length receptor (longest open reading frame), transiently expressed in COS-7 cells (whole cells or membranes prepared from them); also called hSNORF72; NMU receptor
Kind of assay: saturation radioligand binding, membranes of SNORF72-transfected COS-7 cells, n=2. The protocol:
(§5) Radioligand binding assays were performed by diluting membranes prepared from cells expressing the receptor in 50 mM Tris buffer (pH=7.4 at 0° C.) containing 0.1% bovine serum albumin (Sigma), aprotinin (0.005 mg/ml, Boehringer Mannheim) and bestatin (0.1 mM, Sigma) as protease inhibitors. The final protein concentration in the assay was 12–40 µg/ml. […] The bound ligand was separated from free by filtration through GF/B filters presoaked in 0.5% polyethyleneimine (PEI), using a Tomtec (Wallac) vacuum filtration device. After addition of Ready Safe (Beckman) scintillation fluid, bound radioactivity was quantitated using a Trilux (Wallac) scintillation counter (approximately 40% counting efficiency of bound counts). Data was fit to non-linear curves using GraphPad Prism.

The target in assay [6] is T5, human SNORF62 receptor (human, UniProt Q9HB89 1-426).
T5 construct: also called hSNORF62; NMU receptor
T5 sequence: T1 sequence (Q9HB89 1-426)
The experiment in a line: saturation radioligand binding, membranes of SNORF62-transfected COS-7 cells, n=2. The protocol:
as §5

In assay [7] the target is T5, human SNORF62 receptor. The experiment in a line: displacement of [125I]rat NMU-23, membranes of SNORF62-transfected COS-7 cells. The method, then: as §5
Background: Displacement assays read how much labelled ligand stays bound in the presence of the test substance.

Assay [8] concerns the target T4, human SNORF72 receptor. Kind of assay: cell-based or functional assay.
Assay [9] addresses T5, human SNORF62 receptor. Kind of assay: cell-based or functional assay.
Assay [10] concerns the target T5, human SNORF62 receptor. Kind of assay: cell-based or functional assay. The source holds these as a separate data set.
The target of assay [11] is T4, human SNORF72 receptor. Kind of assay: displacement of [125I]rat NMU-23 (0.05-0.1 nM), membranes of SNORF72-transfected COS-7 cells, n=2. The protocol: as §5
Assay [12] has as its target T4, human SNORF72 receptor. The experiment in a line: displacement of [125I]rat NMU-23, membranes of SNORF72-transfected COS-7 cells. The protocol: as §5
Assay [13] concerns the target T5, human SNORF62 receptor. Kind of assay: displacement of [125I]rat NMU-23 (0.05-0.1 nM), membranes of SNORF62-transfected COS-7 cells, n=2. The protocol:
as §5

Assay [14] has as its target T4, human SNORF72 receptor. Kind of assay: cell-based or functional assay. The source holds these as a separate data set.
Assay [15] has as its target T5, human SNORF62 receptor. Kind of assay: cell-based or functional assay. This is another data set of the same source.
The mark [16] stands for this setting: rats, single subcutaneous injection 6 μg/100 g body weight.

T4 sequence (Q9GZQ4 other isoform, or with tags, fused parts or gaps): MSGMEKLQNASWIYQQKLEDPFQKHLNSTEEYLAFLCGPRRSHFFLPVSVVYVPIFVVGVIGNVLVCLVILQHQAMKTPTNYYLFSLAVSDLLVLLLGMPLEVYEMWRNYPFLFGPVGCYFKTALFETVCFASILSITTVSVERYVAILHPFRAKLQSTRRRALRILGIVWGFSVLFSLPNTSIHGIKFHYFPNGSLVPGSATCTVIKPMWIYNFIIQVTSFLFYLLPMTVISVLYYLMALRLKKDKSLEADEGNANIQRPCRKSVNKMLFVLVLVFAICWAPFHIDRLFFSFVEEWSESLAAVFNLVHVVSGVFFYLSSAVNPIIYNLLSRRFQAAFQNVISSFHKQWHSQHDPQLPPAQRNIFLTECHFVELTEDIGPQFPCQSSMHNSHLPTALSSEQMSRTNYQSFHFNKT
T2 sequence (Q9ESQ4 whole entry): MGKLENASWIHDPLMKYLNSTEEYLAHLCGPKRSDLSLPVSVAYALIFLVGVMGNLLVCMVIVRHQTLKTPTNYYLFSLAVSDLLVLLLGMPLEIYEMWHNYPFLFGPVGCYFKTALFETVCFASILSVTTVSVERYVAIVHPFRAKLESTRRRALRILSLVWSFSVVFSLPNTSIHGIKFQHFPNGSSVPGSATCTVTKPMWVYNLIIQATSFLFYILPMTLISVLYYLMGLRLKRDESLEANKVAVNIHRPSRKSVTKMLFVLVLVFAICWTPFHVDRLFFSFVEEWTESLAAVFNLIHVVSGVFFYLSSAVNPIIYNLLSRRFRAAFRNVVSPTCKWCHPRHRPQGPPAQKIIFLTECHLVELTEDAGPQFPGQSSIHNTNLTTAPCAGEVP
T3 sequence (Q9GZQ4 whole entry A395T): as the sequence (Q9GZQ4 other isoform, or with tags, fused parts or gaps) above

As for `CC(C)C[C@H](NC(=O)[C@H](Cc1ccccc1)NC(=O)[C@@H](N)Cc1ccc(O)cc1)C(=O)N[C@@H](Cc1ccccc1)C(=O)N[C@@H](CCCNC(=N)N)C(=O)N1CCC[C@H]1C(=O)N[C@@H](CCCNC(=N)N)C(=O)N[C@@H](CC(N)=O)C(N)=O` [porcine NMU-8, Y F L F R P R N—NH2], the IC50 in the assay with rat uterus membranes is 60 nM. Further, the “stress-evoked rise in corticosterone” value in assay [1] (rats treated for 6 days) is “absent”. For the same molecule, in assay [1] (setting [16]), the “time during which ACTH blood concentrations are elevated” value is 3 to 12 h and the “time plasma corticosterone levels remain elevated” value is 24 h. Further, in assay [1] (repeated administration), the “adrenal weight and the number of cells in the zona reticularis” value was “decreased”. In addition, the “agonist efficacy in IP release assay” value at SNORF62 [2] was “full agonists”. Also, the basal corticosterone secretion entry in [3] is recorded as “without effect”. In addition, the “basal corticosterone and pregnenolone steroid secretion” value with rat adrenal gland slices was “markedly increased”. Besides, the “maximum response / agonist efficacy at SNORF62” value at SNORF62 [4] is on record as “full agonists”. Moreover, the “increases in intracellular Ca2+” value at rat SNORF72 is “robust increases”. In addition, on SNORF72, the “stimulation of intracellular Ca2+ release” value is “stimulated”.

B1: [125I]rat NMU-23 (peptide)
peptide: YKVNEYQGPVAPSGGFFLFRPRN-NH2
modifications: also: 125I-labelled, residue not given here
notes: Radioligand from NEN, specific activity 2200 Ci/mmole; also called radioiodinated rat NMU-23
As for B1, the Kd with human SNORF72 receptor [5] is 0.81 nM and 0.96 nM; with human SNORF62 receptor [6] it was 0.61 nM and 0.72 nM.
For the molecule YKVNEYQGPVAPSGGFFLFRPRN-NH2 (also called rat neuromedin U-23) [rat NMU-23], the Ki with human SNORF62 receptor [7] and in the assay with human SNORF72 receptor [12] was 0.5 nM in each case. Further, in the assay with human SNORF72 receptor [8], the “Avg EC50 (nM), stimulation of Ca2+ release in SNORF72-transfected COS-7 cells” value was found to be 5 nM. Moreover, the “Avg EC50 (nM), stimulation of Ca2+ release in SNORF62-transfected COS-7 cells” value in the assay with human SNORF62 receptor [9] was found to be 2.1 nM. In addition, the “AVG EC50 (nM), stimulation of Ca++ release in SNORF62-transfected COS-7 cells (FLIPR)” value with human SNORF62 receptor [10] came to 2.1 nM. The negative logarithm of the Ki (pKi) came to 9 with human SNORF72 receptor [11] and 9.4 with human SNORF62 receptor [13]. In addition, the “EC50, Ca2+ release in SNORF72-transfected COS-7 cells” value with human SNORF72 receptor [14] was 1.7 nM and 5.1 nM. Also, the “EC50, release of IP second messengers in SNORF62-transfected COS-7 cells” value in the assay with human SNORF62 receptor [15] turned out to be 0.23 nM.
